Results as given in ChEMBL document CHEMBL1138058, “Discovery and evaluation of N-cyclopropyl- 2,4-difluoro-5-((2-(pyridin-2-ylamino)thiazol-5-ylmethyl)amino)benzamide (BMS-605541), a selective and orally efficacious inhibitor of vascular endothelial growth factor receptor-2” (J Med Chem, 2006).
Values belong to the compound of their own block, whether it stands above or below them.

Assays:
HUVEC = test: Antiproliferative activity against VEGF-stimulated HUVEC; conditions: Homo sapiens
L2987 [1] = test: Antiproliferative activity against L2987 cells; conditions: Homo sapiens
[2] = molecular target: Vascular endothelial growth factor receptor 2 (Homo sapiens, UniProt P35968)
[3] = molecular target: Cyclin-dependent kinase 2 (Homo sapiens, UniProt P24941); test: Inhibition of CDK2
[4] = Mean residence time in Sprague-Dawley rat at 50 mg/kg, po; type: ADME, organism-based; parameters: dose 50 mg/kg, route oral; conditions: in vivo
[5] = molecular target: Insulin-like growth factor 1 receptor (Homo sapiens, UniProt P08069); test: Inhibition of IGF1R
[6] = Bioavailability in cynomolgus monkey at 5 mg/kg, po; type: ADME, organism-based, Macaca fascicularis; conditions: in vivo
[7] = molecular target: Mast/stem cell growth factor receptor Kit (Homo sapiens, UniProt P10721); test: Inhibition of c-kit
[8] = Cmax in Balb/C mouse at 90 mg/kg, po; type: ADME, organism-based; parameters: dose 90 mg/kg, route oral; conditions: in vivo
[9] = molecular target: Proto-oncogene tyrosine-protein kinase Src (Homo sapiens, UniProt P12931); test: Inhibition of Src
[10] = molecular target: Tyrosine-protein kinase SYK (Homo sapiens, UniProt P43405); test: Inhibition of Syk
[11] = molecular target: Protein kinase C eta type (Homo sapiens, UniProt P24723); test: Inhibition of PKCeta
HCT-116 [12] = test: Inhibition of tumor growth in Athymic mouse xenografted with HCT116 at 12.5 mg/kg after 14 days; type: functional, Homo sapiens; conditions: HCT-116, 336 h, read-out: TGI
MAP kinase p38 = MAP kinase p38 (Homo sapiens, UniProt O15264+Q15759+Q16539+P53778); test: Inhibition of p38; type: protein assay
[13] = molecular target: Inhibitor of NF-kappa-B kinase (IKK) (Homo sapiens, UniProt O14920+O15111+Q9Y6K9); test: Inhibition of IKK; type: protein-complex assay
[14] = molecular target: Tyrosine-protein kinase JAK3 (Homo sapiens, UniProt P52333); test: Inhibition of JAK3
[15] = molecular target: Protein kinase C alpha type (Homo sapiens, UniProt P17252); test: Inhibition of PKCalpha
[16] = Mean residence time in Balb/C mouse at 90 mg/kg, po; type: ADME, organism-based; parameters: dose 90 mg/kg, route oral; conditions: in vivo
[17] = molecular target: Voltage-gated inwardly rectifying potassium channel KCNH2 (Homo sapiens, UniProt Q12809); test: Inhibition of human ERG expressed in HEK293 cells; type: cell-based
L2987 [18] = test: Inhibition of tumor growth in Athymic mouse xenografted with L2987 at 180 mg/kg after 14 days; type: functional, Homo sapiens; conditions: L2987, 336 h, read-out: TGI
[19] = molecular target: Vascular endothelial growth factor receptor 1 (Homo sapiens, UniProt P17948); test: Inhibition of VEGFR1
L2987 [20] = test: Inhibition of tumor growth in Athymic mouse xenografted with L2987 at 25 mg/kg after 14 days; type: functional, Homo sapiens; conditions: L2987, 336 h, read-out: TGI
[21] = molecular target: Dual specificity mitogen-activated protein kinase kinase 1 (Homo sapiens, UniProt Q02750); test: Inhibition of MEK
[22] = Bioavailability in Balb/C mouse at 90 mg/kg, po; type: ADME, organism-based; conditions: in vivo
[23] = molecular target: Fibroblast growth factor receptor 1 (Homo sapiens, UniProt P11362); test: Inhibition of FGFR1
[24] = Tmax in Balb/C mouse at 90 mg/kg, po; type: ADME, organism-based; parameters: dose 90 mg/kg, route oral; conditions: in vivo
[25] = Half life in Balb/C mouse at 90 mg/kg, po; type: ADME, organism-based; parameters: dose 90 mg/kg, route oral; conditions: in vivo
L2987 [26] = test: Inhibition of tumor growth in Athymic mouse xenografted with L2987 at 60 mg/kg after 14 days; type: functional, Homo sapiens; conditions: L2987, 336 h, read-out: TGI
[27] = molecular target: Glycogen synthase kinase-3 (Homo sapiens, UniProt P49840+P49841); test: Inhibition of GSK3; type: protein assay
[28] = Cmax in Sprague-Dawley rat at 50 mg/kg, po; type: ADME, organism-based; parameters: dose 50 mg/kg, route oral; conditions: in vivo
[29] = molecular target: MAP kinase-activated protein kinase 2 (Homo sapiens, UniProt P49137); test: Inhibition of MAPKAPK2
Rattus norvegicus = test: AUC in Sprague-Dawley rat at 50 mg/kg, po; type: ADME, organism-based, Plasma; parameters: dose 50 mg/kg, route oral; conditions: in vivo
[30] = molecular target: Platelet-derived growth factor receptor beta (Homo sapiens, UniProt P09619); test: Inhibition of PDGFR beta
[31] = Tmax in cynomolgus monkey at 5 mg/kg, po; type: ADME, organism-based, Macaca fascicularis; parameters: dose 5 mg/kg, route oral; conditions: in vivo
Cynomolgus monkey [32] = test: Volume of distribution in cynomolgus monkey at 1 mg/kg, iv; conditions: in vivo
[33] = molecular target: Tyrosine-protein kinase ITK/TSK (Homo sapiens, UniProt Q08881); test: Inhibition of Itk
L2987 [34] = test: Inhibition of tumor growth in Athymic mouse xenografted with L2987 at 90 mg/kg after 14 days; type: functional, Homo sapiens; conditions: L2987, 336 h, read-out: TGI
SRSF protein kinase 1 = SRSF protein kinase 1 (Homo sapiens, UniProt Q96SB4); test: Inhibition of SRPK1
[35] = Tmax in Sprague-Dawley rat at 50 mg/kg, po; type: ADME, organism-based; parameters: dose 50 mg/kg, route oral; conditions: in vivo
[36] = molecular target: Receptor tyrosine-protein kinase erbB-2 (Homo sapiens, UniProt P04626); test: Inhibition of Her2
[37] = molecular target: Protein kinase C zeta type (Homo sapiens, UniProt Q05513); test: Inhibition of PKCzeta
HCT-116 [38] = test: Inhibition of tumor growth in Athymic mouse xenografted with HCT116 at 50 mg/kg after 14 days; type: functional, Homo sapiens; conditions: HCT-116, 336 h, read-out: TGI
Cynomolgus monkey [39] = test: AUC in cynomolgus monkey at 5 mg/kg, po; type: ADME, organism-based, Macaca fascicularis, Plasma; parameters: dose 5 mg/kg, route oral; conditions: in vivo
[40] = Bioavailability in Sprague-Dawley rat at 50 mg/kg, po; type: ADME, organism-based; conditions: in vivo
[41] = Clearance in cynomolgus monkey at 1 mg/kg, iv; conditions: in vivo
[42] = Half life in Sprague-Dawley rat at 50 mg/kg, po; type: ADME, organism-based; parameters: dose 50 mg/kg, route oral; conditions: in vivo
[43] = Mean residence time in cynomolgus monkey at 5 mg/kg, po; type: ADME, organism-based, Macaca fascicularis; parameters: dose 5 mg/kg, route oral; conditions: in vivo
HCT-116 [44] = test: Inhibition of tumor growth in Athymic mouse xenografted with HCT116 at 25 mg/kg after 14 days; type: functional, Homo sapiens; conditions: HCT-116, 336 h, read-out: TGI
[45] = molecular target: Vascular endothelial growth factor receptor 2 (Mus musculus) (UniProt P35918); test: Inhibition of FLK1
[46] = molecular target: Serine/threonine-protein kinase AKT (Homo sapiens, UniProt P31751+Q9Y243+P31749); test: Inhibition of AKT; type: protein assay
[47] = Half life in cynomolgus monkey at 5 mg/kg, po; type: ADME, organism-based, Macaca fascicularis; parameters: dose 5 mg/kg, route oral; conditions: in vivo
L2987 [48] = test: Inhibition of tumor growth in Athymic mouse xenografted with L2987 at 50 mg/kg after 14 days; type: functional, Homo sapiens; conditions: L2987, 336 h, read-out: TGI
[49] = Clearance in Balb/C mouse at 10 mg/kg, iv; type: ADME, organism-based; parameters: dose 10 mg/kg, route intravenous; conditions: in vivo
[50] = Volume of distribution in Sprague-Dawley rat at 10 mg/kg, iv; type: ADME, organism-based; parameters: dose 10 mg/kg, route intravenous; conditions: in vivo, read-out: Vss
[51] = Cmax in cynomolgus monkey at 5 mg/kg, po; type: ADME, organism-based, Macaca fascicularis; parameters: dose 5 mg/kg, route oral; conditions: in vivo
[52] = Volume of distribution in Balb/C mouse at 10 mg/kg, iv; type: ADME, organism-based; parameters: dose 10 mg/kg, route intravenous; conditions: in vivo, read-out: Vss
Mus musculus = test: AUC (0-24h) in Balb/C mouse at 90 mg/kg, po; type: ADME, organism-based, Plasma; parameters: time < 24 hr, dose 90 mg/kg, route oral; conditions: in vivo
[53] = molecular target: Protein kinase C delta type (Homo sapiens, UniProt Q05655); test: Inhibition of PKCdelta
[54] = Clearance in Sprague-Dawley rat at 10 mg/kg, iv; type: ADME, organism-based; parameters: dose 10 mg/kg, route intravenous; conditions: in vivo

Chain of Vascular endothelial growth factor receptor 2 (P35968 whole entry): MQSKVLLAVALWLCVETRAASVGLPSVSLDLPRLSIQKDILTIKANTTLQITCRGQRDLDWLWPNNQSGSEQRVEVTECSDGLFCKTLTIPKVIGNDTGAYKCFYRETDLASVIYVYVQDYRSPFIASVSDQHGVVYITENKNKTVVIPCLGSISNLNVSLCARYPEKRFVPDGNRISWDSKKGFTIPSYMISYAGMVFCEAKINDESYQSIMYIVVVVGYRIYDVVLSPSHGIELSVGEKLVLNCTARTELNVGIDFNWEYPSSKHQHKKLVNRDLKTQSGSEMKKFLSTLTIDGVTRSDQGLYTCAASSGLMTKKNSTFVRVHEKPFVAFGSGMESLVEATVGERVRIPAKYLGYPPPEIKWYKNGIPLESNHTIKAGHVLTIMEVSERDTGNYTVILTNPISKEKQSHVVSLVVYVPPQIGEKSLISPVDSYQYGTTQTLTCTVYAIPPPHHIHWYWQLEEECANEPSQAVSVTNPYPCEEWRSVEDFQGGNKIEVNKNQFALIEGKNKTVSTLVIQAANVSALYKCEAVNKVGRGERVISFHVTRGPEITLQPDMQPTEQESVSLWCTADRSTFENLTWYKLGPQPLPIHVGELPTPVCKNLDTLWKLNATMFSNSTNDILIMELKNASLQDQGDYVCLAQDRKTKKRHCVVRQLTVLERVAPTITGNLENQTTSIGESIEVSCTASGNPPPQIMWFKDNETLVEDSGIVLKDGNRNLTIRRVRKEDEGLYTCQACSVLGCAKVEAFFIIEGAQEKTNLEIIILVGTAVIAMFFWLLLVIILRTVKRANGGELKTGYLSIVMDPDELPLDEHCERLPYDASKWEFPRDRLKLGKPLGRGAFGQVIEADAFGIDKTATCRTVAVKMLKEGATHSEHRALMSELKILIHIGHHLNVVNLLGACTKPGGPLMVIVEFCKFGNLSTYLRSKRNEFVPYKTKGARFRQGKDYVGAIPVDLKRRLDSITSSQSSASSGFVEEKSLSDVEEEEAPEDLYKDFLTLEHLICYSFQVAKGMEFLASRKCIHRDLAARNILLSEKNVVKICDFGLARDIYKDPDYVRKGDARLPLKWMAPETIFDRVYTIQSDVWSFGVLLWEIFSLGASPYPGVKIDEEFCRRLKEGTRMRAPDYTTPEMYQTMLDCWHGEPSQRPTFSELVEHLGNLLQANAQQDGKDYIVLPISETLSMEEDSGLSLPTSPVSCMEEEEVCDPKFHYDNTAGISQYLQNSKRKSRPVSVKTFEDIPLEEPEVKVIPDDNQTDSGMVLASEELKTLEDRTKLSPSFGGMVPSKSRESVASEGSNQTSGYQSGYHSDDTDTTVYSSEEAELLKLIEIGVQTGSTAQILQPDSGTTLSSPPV
Chain of Tyrosine-protein kinase ITK/TSK (Q08881 whole entry): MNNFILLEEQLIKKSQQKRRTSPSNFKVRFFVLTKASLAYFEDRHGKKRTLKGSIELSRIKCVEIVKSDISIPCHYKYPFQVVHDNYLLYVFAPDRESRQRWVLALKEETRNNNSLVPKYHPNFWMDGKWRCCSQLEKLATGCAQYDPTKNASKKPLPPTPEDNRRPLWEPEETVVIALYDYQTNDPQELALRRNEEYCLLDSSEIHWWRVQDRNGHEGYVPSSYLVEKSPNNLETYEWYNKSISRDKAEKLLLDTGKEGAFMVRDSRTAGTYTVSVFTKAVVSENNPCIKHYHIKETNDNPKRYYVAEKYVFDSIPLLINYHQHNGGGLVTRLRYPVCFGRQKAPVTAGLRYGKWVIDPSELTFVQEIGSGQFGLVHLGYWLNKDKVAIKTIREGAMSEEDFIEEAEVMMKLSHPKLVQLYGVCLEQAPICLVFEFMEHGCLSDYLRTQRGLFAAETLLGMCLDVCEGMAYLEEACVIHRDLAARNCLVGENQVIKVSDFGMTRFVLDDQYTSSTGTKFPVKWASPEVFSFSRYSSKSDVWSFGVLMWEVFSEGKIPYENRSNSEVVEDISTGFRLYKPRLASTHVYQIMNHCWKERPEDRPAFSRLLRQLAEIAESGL
Chain of Voltage-gated inwardly rectifying potassium channel KCNH2 (Q12809 whole entry): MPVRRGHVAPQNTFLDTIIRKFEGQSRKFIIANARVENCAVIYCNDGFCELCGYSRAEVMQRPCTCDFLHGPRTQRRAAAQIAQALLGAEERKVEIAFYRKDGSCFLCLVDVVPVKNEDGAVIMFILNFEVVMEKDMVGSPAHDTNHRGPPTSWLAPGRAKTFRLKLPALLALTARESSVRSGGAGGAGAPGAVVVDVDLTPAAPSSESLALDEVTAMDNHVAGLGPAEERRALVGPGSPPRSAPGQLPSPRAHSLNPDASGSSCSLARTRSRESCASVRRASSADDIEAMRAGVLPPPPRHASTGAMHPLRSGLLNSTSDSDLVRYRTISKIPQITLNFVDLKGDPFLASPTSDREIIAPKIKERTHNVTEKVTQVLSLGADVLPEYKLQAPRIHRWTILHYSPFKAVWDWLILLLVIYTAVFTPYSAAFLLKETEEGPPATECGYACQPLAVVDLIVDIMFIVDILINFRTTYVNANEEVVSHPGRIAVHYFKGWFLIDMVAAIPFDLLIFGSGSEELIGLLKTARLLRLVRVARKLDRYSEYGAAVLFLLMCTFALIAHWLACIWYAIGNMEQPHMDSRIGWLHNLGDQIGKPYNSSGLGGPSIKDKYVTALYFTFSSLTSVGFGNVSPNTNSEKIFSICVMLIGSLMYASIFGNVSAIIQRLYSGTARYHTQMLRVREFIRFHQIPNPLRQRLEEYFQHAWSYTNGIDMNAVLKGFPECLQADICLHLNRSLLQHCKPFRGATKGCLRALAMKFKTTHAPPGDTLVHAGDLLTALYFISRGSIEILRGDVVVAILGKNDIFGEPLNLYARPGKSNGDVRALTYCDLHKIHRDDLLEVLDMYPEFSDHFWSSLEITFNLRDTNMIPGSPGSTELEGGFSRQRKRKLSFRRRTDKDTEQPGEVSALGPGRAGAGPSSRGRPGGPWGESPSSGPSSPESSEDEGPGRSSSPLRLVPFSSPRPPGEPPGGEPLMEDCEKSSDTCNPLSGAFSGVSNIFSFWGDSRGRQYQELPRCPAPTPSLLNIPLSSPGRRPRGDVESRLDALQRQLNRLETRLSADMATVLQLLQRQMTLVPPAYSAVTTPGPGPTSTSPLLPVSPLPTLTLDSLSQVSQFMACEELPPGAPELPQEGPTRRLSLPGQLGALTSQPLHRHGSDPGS
Chain of Dual specificity mitogen-activated protein kinase kinase 1 (Q02750 whole entry): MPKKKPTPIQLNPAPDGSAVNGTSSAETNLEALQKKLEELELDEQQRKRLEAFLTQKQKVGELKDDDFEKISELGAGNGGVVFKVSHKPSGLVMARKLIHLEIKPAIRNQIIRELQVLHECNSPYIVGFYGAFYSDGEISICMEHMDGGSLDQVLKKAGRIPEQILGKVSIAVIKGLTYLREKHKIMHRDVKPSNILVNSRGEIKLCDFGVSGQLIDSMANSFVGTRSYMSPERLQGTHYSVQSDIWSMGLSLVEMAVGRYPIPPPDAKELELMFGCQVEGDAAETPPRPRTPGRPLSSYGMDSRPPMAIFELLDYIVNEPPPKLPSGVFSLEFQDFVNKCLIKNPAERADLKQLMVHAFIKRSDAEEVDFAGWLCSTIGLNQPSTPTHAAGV
Chain of Receptor tyrosine-protein kinase erbB-2 (P04626 whole entry): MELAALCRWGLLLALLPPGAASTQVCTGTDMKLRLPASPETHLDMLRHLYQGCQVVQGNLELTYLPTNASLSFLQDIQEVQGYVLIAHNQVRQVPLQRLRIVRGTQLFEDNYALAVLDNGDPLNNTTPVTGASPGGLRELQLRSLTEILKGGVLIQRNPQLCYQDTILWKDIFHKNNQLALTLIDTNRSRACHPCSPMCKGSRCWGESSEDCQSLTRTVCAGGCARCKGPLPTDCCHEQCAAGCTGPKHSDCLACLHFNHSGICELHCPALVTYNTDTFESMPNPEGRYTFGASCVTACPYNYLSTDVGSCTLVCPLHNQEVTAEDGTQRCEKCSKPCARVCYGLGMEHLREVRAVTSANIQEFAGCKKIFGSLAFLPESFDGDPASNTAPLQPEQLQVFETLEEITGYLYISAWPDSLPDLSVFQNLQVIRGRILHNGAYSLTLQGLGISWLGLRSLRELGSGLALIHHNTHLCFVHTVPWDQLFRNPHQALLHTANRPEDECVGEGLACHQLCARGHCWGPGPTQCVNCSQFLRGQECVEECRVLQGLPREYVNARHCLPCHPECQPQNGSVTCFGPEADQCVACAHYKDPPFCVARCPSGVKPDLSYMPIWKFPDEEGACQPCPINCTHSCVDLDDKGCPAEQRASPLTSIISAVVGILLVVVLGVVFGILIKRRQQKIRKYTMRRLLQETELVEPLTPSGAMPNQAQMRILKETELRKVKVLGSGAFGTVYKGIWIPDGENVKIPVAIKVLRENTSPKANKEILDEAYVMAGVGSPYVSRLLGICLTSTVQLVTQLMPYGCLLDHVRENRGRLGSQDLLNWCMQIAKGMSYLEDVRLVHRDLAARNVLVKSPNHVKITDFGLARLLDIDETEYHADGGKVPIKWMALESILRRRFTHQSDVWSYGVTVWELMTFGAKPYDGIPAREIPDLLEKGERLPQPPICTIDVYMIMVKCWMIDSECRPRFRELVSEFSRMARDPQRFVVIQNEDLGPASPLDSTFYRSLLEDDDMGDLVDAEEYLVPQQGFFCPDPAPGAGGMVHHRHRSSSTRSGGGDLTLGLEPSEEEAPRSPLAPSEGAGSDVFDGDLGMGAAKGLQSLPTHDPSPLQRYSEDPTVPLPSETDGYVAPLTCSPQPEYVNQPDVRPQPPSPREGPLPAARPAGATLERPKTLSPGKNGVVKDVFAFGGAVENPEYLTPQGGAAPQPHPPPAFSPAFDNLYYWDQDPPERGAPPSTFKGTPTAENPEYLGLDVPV

SMILES: O=C(NC1CC1)c1ccc(F)c(NCc2cnc(Nc3ccccn3)s2)c1
IC50 (HUVEC): 0.014 µM
IC50 (L2987 [1]): > 2.5 µM

SMILES: CNC(=O)c1cccc(NCc2cnc(Nc3ccccn3)s2)c1
IC50 (L2987 [1]): > 2.5 µM

SMILES: O=C(NC1CC1)c1ccc(F)c(CCc2cnc(Nc3ccccn3)s2)c1
IC50 (HUVEC): 0.005 µM
IC50 (L2987 [1]): > 2.5 µM

IC50 [2]: 1.9 µM
IC50 [3]: 0.05 µM
SMILES: COc1ccc(C(=O)Nc2ncc(SCc3ncc(C(C)(C)C)o3)s2)cc1OC

SMILES: CNC(=O)c1cccc(CSc2cnc(Nc3ccccn3)s2)c1
IC50 (L2987 [1]): > 2.5 µM

SMILES: CNC(=O)c1cc(NCc2cnc(Nc3ccccn3)s2)c(F)cc1F
IC50 (HUVEC): 0.052 µM
IC50 (L2987 [1]): > 2.5 µM

SMILES: O=C(NCCN1CCOCC1)c1ccc(F)c(NCc2cnc(Nc3ccccn3)s2)c1
IC50 (L2987 [1]): > 2.5 µM

MRT [4]: 3.5 h
IC50 [5]: > 25 µM
bioavailability [6]: 52%
IC50 [7]: 0.37 µM
Cmax [8]: 148 µM
IC50 [9]: > 10 µM
IC50 [10]: > 50 µM
IC50 [2]: 0.023 µM
IC50 [11]: > 40 µM
IC50 (MAP kinase p38): > 5 µM
IC50 [13]: > 10 µM
IC50 [14]: > 50 µM
IC50 [15]: > 40 µM
MRT [16]: 3.4 h
IC50 [19]: 0.4 µM
IC50 [21]: > 5 µM
bioavailability [22]: 100%
IC50 [23]: > 5 µM
Tmax [24]: 0.5 h
half-life [25]: 1.7 h
IC50 [27]: > 5 µM
Cmax [28]: 44 µM
IC50 [29]: > 50 µM
AUC (Rattus norvegicus): 202 µM·h
IC50 [3]: > 10 µM
IC50 [30]: 0.2 µM
Tmax [31]: 0.75 h
Vss (Cynomolgus monkey [32]): 1.6 L/kg
IC50 [33]: > 50 µM
IC50 (SRSF protein kinase 1): > 10 µM
Tmax [35]: 2 h
IC50 [36]: > 50 µM
IC50 [37]: > 40 µM
AUC (Cynomolgus monkey [39]): 28.5 µM·h
bioavailability [40]: 100%
clearance [41]: 3.9 mL/min/kg
half-life [42]: 2.2 h
MRT [43]: 7.9 h
IC50 [45]: 0.04 µM
IC50 [46]: > 5 µM
half-life [47]: 7.1 h
clearance [49]: 11.8 mL/min/kg
Vd [50]: 1.1 L/kg
Cmax [51]: 8 µM
Vd [52]: 1.7 L/kg
AUC (Mus musculus): 649 µM·h
IC50 [53]: > 40 µM
clearance [54]: 13.6 mL/min/kg
SMILES: O=C(NC1CC1)c1cc(NCc2cnc(Nc3ccccn3)s2)c(F)cc1F
IC50 (HUVEC): 0.025 µM
inhibition in vivo at 12.5 mg/kg (HCT-116 [12]): 21%
IC50 [17]: 16.6 µM
inhibition in vivo at 180 mg/kg (L2987 [18]): 67%
inhibition in vivo at 25 mg/kg (L2987 [20]): 23%
inhibition in vivo at 60 mg/kg (L2987 [26]): 16%
IC50 (L2987 [1]): > 2.5 µM
inhibition in vivo at 90 mg/kg (L2987 [34]): 55%
inhibition in vivo at 50 mg/kg (HCT-116 [38]): 64%
inhibition in vivo at 25 mg/kg (HCT-116 [44]): 51%
inhibition in vivo at 50 mg/kg (L2987 [48]): 67%

SMILES: O=C(NC1CCCC1)c1ccc(F)c(NCc2cnc(Nc3ccccn3)s2)c1
IC50 (L2987 [1]): > 2.5 µM

SMILES: O=C(NCc1ccccc1)c1ccc(F)c(NCc2cnc(Nc3ccccn3)s2)c1
IC50 (HUVEC): 0.12 µM
IC50 (L2987 [1]): > 2.5 µM

SMILES: O=C(NCc1ccccn1)c1ccc(F)c(NCc2cnc(Nc3ccccn3)s2)c1
IC50 (HUVEC): 0.053 µM
IC50 (L2987 [1]): > 2.5 µM

SMILES: CONC(=O)c1cccc(CSc2cnc(Nc3ccccn3)s2)c1
IC50 (HUVEC): 0.11 µM
IC50 (L2987 [1]): > 2.5 µM

SMILES: CNC(=O)c1ccc(F)c(NCc2cnc(Nc3ccccn3)s2)c1
IC50 (HUVEC): 0.02 µM
IC50 (L2987 [1]): > 2.5 µM
